# Measurements from US20260256871A1, “COMPOSITIONS AND METHODS FOR TREATMENT OF SUBJECTS SUFFERING FROM A SARS-COV-2 INFECTION” (priority 2022, published 2026).
# “Also recorded” adds a separate entry of the source. Counter-ions that a name gives are not always drawn. Like-named read-outs stand apart in the source and are kept apart here.
# Assays:
# [1] = tested on: SARS-CoV2; format: cell-based; conditions: for viral load: antioxidants NAC and SFN; for inhibition of SARS-CoV2 replication in HBECs (viral copy number): camostat basolateral
# [2] = tested on: 16HBE cells; test: Cytotoxicity, CytoTox 96 LDH release assay; conditions: for cytotoxicity (LDH release) at maximum concentration used in antiviral assays: 72 h, camostat 125 μM, HA 0.7%, BAPTA-AM 10 uM, allopurinol 400 μM, NAC 100 mM, SFN 10 μM, ivacaftor, PAAG at maximum; for toxicity values (percent of maximum toxicity): Allopurinol 400 uM, NAC 50 mM, SFN 5 uM, 72 hours
# [3] = tested on: cells; conditions: due to the very low pH; cited from earlier work
# [4] = tested on: SARS-CoV2; test: Protection against SARS-CoV2 in Vero cells; format: cell-based
smiles,measurement,setting,value
"CC(C)(C)c1cc(C(C)(C)C)c(NC(=O)c2c[nH]c3ccccc3c2=O)cc1O [Ivacaftor, ivacaftor]",effect on SARS-CoV-2 replication,"[1]; ivacaftor basolateral, ≥10 μM, close to its maximum solubility",moderate effect
same,cytotoxicity (LDH release) at maximum concentration used in antiviral assays,[2],showed cytotoxicity
"CC(=O)N[C@@H](CS)C(=O)O [NAC, N-Acetyl-L-cysteine]",viral load,[1],reduction in the viral load
same,cytotoxicity (LDH release) at maximum concentration used in antiviral assays,[2],"neither allopurinol, NAC nor SFN showed cytotoxicity"
same,toxicity values (percent of maximum toxicity),[2],negative values of toxicity
"C[S+]([O-])CCCCN=C=S (stereo not shown) [SFN, sulforaphane]",viral load,[1],reduction in the viral load
same,cytotoxicity (LDH release) at maximum concentration used in antiviral assays,[2],"neither allopurinol, NAC nor SFN showed cytotoxicity"
same,toxicity values (percent of maximum toxicity),[2],negative values of toxicity
Oc1ncnc2[nH]ncc12 [allopurinol],protection of HBECs from SARS-CoV2 infection (replication),"[1]; allopurinol 400 uM, xanthine oxidase inhibition",significantly protected; also recorded: significantly blocks SARS-CoV2 replication
same,cytotoxicity (LDH release) at maximum concentration used in antiviral assays,[2],"neither allopurinol, NAC nor SFN showed cytotoxicity"
same,toxicity values (percent of maximum toxicity),[2],negative values of toxicity
O=C1O[C@H]([C@@H](O)CO)C(O)=C1O [ascorbic acid],cytotoxicity of component alone (without bicarbonate buffer),[3],cytotoxic
"O=C([O-])O.[Na+] [bicarbonate alone, sodium bicarbonate]",antiviral activity of ARINA-1 components,[1],did not show significant activity
CN(C)C(=O)COC(=O)Cc1ccc(OC(=O)c2ccc(NC(=N)N)cc2)cc1 [camostat mesylate],inhibition of SARS-CoV2 replication in HBECs (viral copy number),"[1]; vs DMSO vehicle, 72 h",dose-dependent manner
same,inhibition of SARS-CoV2 replication in HBECs (viral copy number),"[1]; vs DMSO vehicle, 72 h, listed as Camostat",significantly inhibited
same,inhibition of SARS-CoV2 infection,"[1]; camostat mesylate basolateral, concentrations higher than 16.62 μM, vs DMSO vehicle, 72 h",~100%
same,protection against SARS-CoV2,[4],partially protective
same,cytotoxicity (LDH release) at maximum concentration used in antiviral assays,[2],not toxic
N[C@@H](CCC(=O)N[C@@H](CS)C(=O)NCC(=O)O)C(=O)O [glutathione],cytotoxicity of component alone (without bicarbonate buffer),[3],cytotoxic
